Calls of active or inactive are those of the source.
Columns and labels:
[1] = Luminescence Cell-Based Dose Response to Identify Activators of 5'UTR Stem-Loop Driven Prion Protein mRNA Translation in H4-C Neuroglioblastoma Cells. [Related pubchem assays: 1829 (Project Summary), 1814 (Primary HTS)]; type: functional
[2] = Luminescence Cell-Based Dose Response HTS to Identify Activators of Luciferase Translation or Activity in H4 […] Cells. [Related pubchem assays: 1829 (Project Summary), 1814 (Primary HTS)]; type: functional
[3] = system: H4; test: Luminescence Cell-Based Dose Response HTS to Identify Activators of 5'UTR Stem-Loop Driven Prion Protein mRNA Translation in H4 Neuroglioblastoma Cells. [Related pubchem assays: 1829 (Project Summary), 1814 (Primary HTS)]; type: functional; conditions: Homo sapiens
[4] = Luminescence Cell-Based Dose Response to Identify Activators of Luciferase Translation or Activity in H4-C Neuroglioblastoma Cells. [Related pubchem assays: 1829 (Project Summary), 1814 (Primary HTS)]; type: functional
[5] = Luminescence Cell-Based Dose Confirmation to Identify Activators of 5'UTR Stem-Loop Driven Alpha-Synuclein mRNA Translation in H4 Neuroglioblastoma Cells. [Related pubchem assays: 1829 (Project Summary), 1814 (Primary HTS)]; type: functional
[6] = target: T1, Rac GTPase-activating protein 1 (Homo sapiens, UniProt Q9H0H5); test: blockers of MgcRacGAP-driven Rac1 GTP hydrolysis – biochemical, ADP Hunter fluorescence, primary and confirmatory, confirmation (AID 624330); type: functional
T1 sequence (Q9H0H5 whole entry): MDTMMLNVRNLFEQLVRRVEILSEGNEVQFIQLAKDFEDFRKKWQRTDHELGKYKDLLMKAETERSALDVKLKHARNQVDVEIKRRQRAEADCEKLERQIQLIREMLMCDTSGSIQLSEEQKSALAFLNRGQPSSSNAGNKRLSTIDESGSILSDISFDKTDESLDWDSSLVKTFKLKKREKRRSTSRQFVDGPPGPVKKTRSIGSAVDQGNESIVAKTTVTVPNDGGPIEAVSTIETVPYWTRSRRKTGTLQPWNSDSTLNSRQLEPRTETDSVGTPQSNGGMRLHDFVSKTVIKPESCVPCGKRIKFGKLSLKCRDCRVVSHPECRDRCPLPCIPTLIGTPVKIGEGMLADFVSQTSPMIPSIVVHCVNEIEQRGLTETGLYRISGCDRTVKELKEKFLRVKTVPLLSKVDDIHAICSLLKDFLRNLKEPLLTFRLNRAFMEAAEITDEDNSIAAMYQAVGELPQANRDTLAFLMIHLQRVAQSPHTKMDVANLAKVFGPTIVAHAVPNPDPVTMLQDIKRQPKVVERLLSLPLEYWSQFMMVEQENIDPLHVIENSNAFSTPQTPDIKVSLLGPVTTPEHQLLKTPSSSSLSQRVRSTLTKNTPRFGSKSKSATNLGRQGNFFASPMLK

[7] = target: T2, Oxysterols receptor LXR-beta (Homo sapiens, UniProt P55055); type: functional, cell-based;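 further: agonist activity at LXR measured by a cell-based luminescence readout across a dose range, run as a counterscreen for daf-12 agonists; HEK293 cells with Gal4-LXR fusion and GAL4-driven luciferase reporter; potency for activation of Gal4-LXR reporter so compounds are agonists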
T2 sequence (P55055 whole entry): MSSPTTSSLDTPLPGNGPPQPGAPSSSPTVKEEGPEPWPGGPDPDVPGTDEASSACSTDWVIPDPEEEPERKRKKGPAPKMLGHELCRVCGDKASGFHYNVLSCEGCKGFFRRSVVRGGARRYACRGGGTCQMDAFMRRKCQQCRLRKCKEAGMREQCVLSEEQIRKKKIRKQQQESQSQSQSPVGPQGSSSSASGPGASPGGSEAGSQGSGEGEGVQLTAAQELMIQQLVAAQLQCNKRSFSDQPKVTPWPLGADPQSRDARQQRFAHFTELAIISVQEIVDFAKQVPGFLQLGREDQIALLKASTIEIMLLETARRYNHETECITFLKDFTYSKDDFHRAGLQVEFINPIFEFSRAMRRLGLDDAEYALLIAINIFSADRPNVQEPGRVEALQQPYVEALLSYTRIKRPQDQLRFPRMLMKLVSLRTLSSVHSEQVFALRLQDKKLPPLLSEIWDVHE

[8] = potency of ADAM10 substrate cleavage blockers – biochemical, QFRET, dose response (AID 743254);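 further: ADAM10 enzyme with the DM2 quenched FRET peptide as substrate; EDANS fluorescence gain as the protease cuts the substrate; inhibitor potency against ADAM10 proteolytic activity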
[9] = target: Disintegrin and metalloproteinase domain-containing protein 17 (Homo sapiens, UniProt P78536); test: inhibition of ADAM17 substrate cleavage – biochemical, quenched FRET substrate, counter-screen for ADAM10 exosite inhibitor project, dose response (AID 743253)
Chain of Disintegrin and metalloproteinase domain-containing protein 17 (P78536 whole entry, the tested form may be a part): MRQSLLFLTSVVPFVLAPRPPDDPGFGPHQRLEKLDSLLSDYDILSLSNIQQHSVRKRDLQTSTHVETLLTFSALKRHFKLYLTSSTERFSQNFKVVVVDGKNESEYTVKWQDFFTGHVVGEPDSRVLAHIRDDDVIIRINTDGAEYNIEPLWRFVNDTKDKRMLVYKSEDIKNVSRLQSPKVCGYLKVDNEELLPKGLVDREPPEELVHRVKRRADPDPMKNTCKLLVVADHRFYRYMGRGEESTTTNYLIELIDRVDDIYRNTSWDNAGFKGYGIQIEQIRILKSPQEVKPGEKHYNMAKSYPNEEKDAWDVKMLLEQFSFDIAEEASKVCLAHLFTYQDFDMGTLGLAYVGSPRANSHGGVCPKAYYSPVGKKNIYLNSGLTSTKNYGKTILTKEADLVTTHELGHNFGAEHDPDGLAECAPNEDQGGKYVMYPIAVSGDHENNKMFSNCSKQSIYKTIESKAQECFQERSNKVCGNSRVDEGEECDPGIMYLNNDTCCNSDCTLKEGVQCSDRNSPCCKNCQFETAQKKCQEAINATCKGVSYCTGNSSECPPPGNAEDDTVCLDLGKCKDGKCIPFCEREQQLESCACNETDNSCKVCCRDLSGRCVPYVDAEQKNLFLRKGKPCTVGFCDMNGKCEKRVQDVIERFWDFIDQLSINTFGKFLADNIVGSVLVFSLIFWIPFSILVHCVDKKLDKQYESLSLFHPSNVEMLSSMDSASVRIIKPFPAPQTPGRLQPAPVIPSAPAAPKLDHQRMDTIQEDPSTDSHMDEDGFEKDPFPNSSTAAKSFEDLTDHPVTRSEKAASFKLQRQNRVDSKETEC

[10] = A cytotoxicity screen of small molecule inhibitors of the PhoP region in Salmonella typhi identified in the primary screen. [Related pubchem assays: 1850, 1864, 1985 ]; type: functional
[11] = system: INS1; test: INS-1E survival protection against cytokine death – cell-based, luminescence, retest, dose response (AID 449756); type: functional; conditions: Rattus norvegicus;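 further: cell death triggered by IL-1 beta plus TNF-alpha plus IFN-gamma mixture; protective hits raise ATP signal compared with cytokine alone wells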
[12] = reduction of Shn3 3'UTR-driven luciferase in osteoblasts – cell-based, Clone20 osteoblasts, firefly luciferase, cherry-picked, dose response (AID 624132); type: functional;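 further: firefly luciferase luminescence from reporter carrying the Shn3 3'UTR in osteoblasts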
[13] = loss of viability in HepG2 cells – cell-based, CellTiter-Glo, cherry-picked, cytotoxicity control for Shn3 inhibitor project, dose response (AID 624134); type: functional
[14] = non-specific 3'UTR reporter inhibition in Clone20-Shn3RL – cell-based, Renilla luciferase, cherry-picked, counter-screen for Shn3 inhibitor project, dose response (AID 624133); type: functional
[15] = target: Protein Wnt-3a (Mus musculus, UniProt P27467); test: antagonism of Wnt3a pathway luciferase reporter – Wnt-LIGHT cells, luminescence, selectivity assay for Gli-SUFU antagonist project, dose response (AID 651570); type: functional; conditions: read-out: IC50_Mean;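 further: Wnt-LIGHT reporter cells stimulated with conditioned medium from Wnt3a-producing cells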
Chain of Protein Wnt-3a (P27467 whole entry, the tested form may be a part): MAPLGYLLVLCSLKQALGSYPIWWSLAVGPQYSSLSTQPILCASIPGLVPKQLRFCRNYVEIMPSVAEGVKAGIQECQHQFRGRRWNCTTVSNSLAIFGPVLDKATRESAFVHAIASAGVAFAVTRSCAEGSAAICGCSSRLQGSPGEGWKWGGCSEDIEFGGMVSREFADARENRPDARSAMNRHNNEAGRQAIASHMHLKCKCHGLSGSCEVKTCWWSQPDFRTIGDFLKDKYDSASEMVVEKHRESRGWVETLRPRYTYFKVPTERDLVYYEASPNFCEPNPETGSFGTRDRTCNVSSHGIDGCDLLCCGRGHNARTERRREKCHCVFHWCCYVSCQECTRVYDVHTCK

[16] = blockers of HIV-1 envelope-mediated cell-cell fusion – cherry-pick, dose response (AID 652057); type: functional, cell-based
[17] = viability loss in CEM21 cells – cell-based, CellTiter-Glo luminescence, cherry-picked, cytotoxicity control for viral fusion inhibitor project, dose response (AID 652042); type: functional;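 further: potency for signal decrease meaning cytotoxicity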
[18] = blockers of HIV-1 ZM109 envelope-driven cell-cell fusion – HeLa effector, CEM target cells, luciferase, cherry-pick, dose response (AID 652058); type: functional, cell-based;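 further: luciferase signal from HIV-1 Env mediated cell-cell fusion of effector and target cells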
[19] = HIV-1 AD8 envelope cell-cell fusion blockers – cherry-pick, dose response (AID 652062); type: functional, cell-based;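 further: luciferase signal from cell-cell fusion driven by HIV-1 clade B AD8 Env; potency is for inhibitors of fusion seen as a drop in luminescence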
[20] = Shn3 3'UTR reporter signal decrease – cell-based, Clone20 osteoblasts, firefly luciferase, cherry-pick, set 2, Schnurri-3 inhibitor project, dose response (AID 720490); type: functional;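 further: actives lower the luminescence signal as inhibitors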
[21] = Late stage counterscreen for inhibitors of Trypanosoma brucei methionyl tRNA synthetase (MetRS): Luminescence-based cell-based high throughput dose response assay to identify compounds that are cytotoxic to Jurkat human T lymphocyte cells.; type: functional

## CN1C(=O)/C(=C/C=C2\SCCN2C)N(C)C1=S
[1]
  EC50: 0.383 µM (active)
[2]
  EC50: < 0.1 µM (active)
[3]
  EC50: > 120 µM (inconclusive)
[4]
  EC50: 0.41 µM (active)
[5]
  EC50: 0.766 µM (active)
[6]
  IC50: 20 µM (active)
[7]
  EC50: > 67.6 µM (inactive)

## C=CCN(c1ccccc1OC)S(=O)(=O)c1cccc(C(=O)OCC(=O)c2c[nH]c3ccccc23)c1
[8]
  IC50: > 69.5 µM (inactive)
[9]
  IC50: > 69.5 µM (inactive)

## CCN(CC)c1ccc(NC(=O)COC(=O)CSc2ccc(Br)cc2C)cc1
[8]
  IC50: > 7.72 µM (active)
[9]
  IC50: > 69.5 µM (inactive)

## CCCCOCCCNc1[nH]cnc2c3ccccc3nc1-2
[10]
  EC50: > 50 µM (active)
[11]
  AC50: 1.78 µM (active)
[12]
  AC50: 1.05 µM (active)
[13]
  AC50: 22.9 µM (active)
[14]
  AC50: 10.9 µM (active)
[15]
  IC50: 0.843 µM (active)
[16]
  AC50: 33.8 µM (active)
[17]
  AC50: 46.3 µM (active)
[18]
  AC50: 14.8 µM (active)
[19]
  AC50: 5.02 µM (active)
[20]
  AC50: 1.48 µM (active)

## O=C(NCc1nc2ccccc2[nH]1)C1=C[C@H](c2ccc(Br)cc2)C[C@H](OCc2ccc(CO)cc2)O1
[21]
  IC50: 81.3 µM (inactive)
